Assay results from patent US11236047B2 (ASTEX THERAPEUTICS LIMITED, priority 2017, dated 2022).
Read-outs that look alike come from different tables or passages of the source.

Experiments:
[1] = target: MDM2-p53 interaction (Homo sapiens (Human), UniProt Q00987); conditions: for inhibition at 0.001 µM: read-out: MDM2 % inhibition @0.0010; for inhibition at 0.003 µM: read-out: MDM2 % inhibition @0.0030; for inhibition at 0.1 µM: read-out: MDM2 % inhibition @0.10
[2] = tested on: SN40R2 cells; experiment: Protocol B: SN40R2 CellTiter-Glo luminescent cell viability assay; conditions: for inhibition at 10 µM: read-out: SN40R2 % inhibition at 10, Protocol B, SN40R2, at 10 μM; for inhibition at 3 µM: read-out: SN40R2 % inhibition at 3, Protocol B, SN40R2, at 3 μM
[3] = tested on: SJSA-1 cells; experiment: Protocol B: SJSA-1 CellTiter-Glo luminescent cell viability assay; conditions: for inhibition at 10 µM: Homo sapiens, SJSA-1, read-out: SJSA1 % inhibition at 10
[4] = read-out: SJSA1 IC50, Protocol B, SJSA-1
[5] = read-out: SJSA1 IC50 (μM) (Protocol B), SJSA-1, Protocol B

Sequence of MDM2-p53 interaction (Q00987 whole entry): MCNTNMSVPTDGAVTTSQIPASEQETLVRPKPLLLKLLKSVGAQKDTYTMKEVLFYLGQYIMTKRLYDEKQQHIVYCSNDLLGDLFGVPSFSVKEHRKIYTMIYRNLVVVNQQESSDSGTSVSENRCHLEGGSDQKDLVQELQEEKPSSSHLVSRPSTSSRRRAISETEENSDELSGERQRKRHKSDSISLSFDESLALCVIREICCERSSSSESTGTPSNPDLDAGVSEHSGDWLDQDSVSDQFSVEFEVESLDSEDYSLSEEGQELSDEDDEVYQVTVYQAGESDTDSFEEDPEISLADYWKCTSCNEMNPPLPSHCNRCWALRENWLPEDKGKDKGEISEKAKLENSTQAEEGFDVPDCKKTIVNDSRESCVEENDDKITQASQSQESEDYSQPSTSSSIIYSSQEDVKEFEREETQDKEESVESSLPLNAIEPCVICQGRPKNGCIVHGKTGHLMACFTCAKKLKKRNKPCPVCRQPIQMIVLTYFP

Structure (SMILES)	inhibition at 0.001 µM [1] [%]	inhibition at 10 µM [2] [%]	further results
CC[C@@](O)(c1cc(F)c2c(c1)C(=O)N(Cc1ncc(C#N)cn1)[C@@]2(O[C@H]1C[C@@H](O)C1)c1ccc(Cl)cc1)C1(F)CCOCC1 [Example 505, 2-{[(1R)-1-(4-chlorophenyl)-7-fluoro-5-[(1R)-1-(4-fluorooxan-4-yl)-1-hydroxypropyl]-3-oxo-1-[cis-3-hydroxycyclobutoxy]-2,3-dihydro-1H-isoindol-2-yl]methyl}pyrimidine-5-carbonitrile]	60	5	–
CC[C@@](O)(c1cc(F)c2c(c1)C(=O)N(Cc1ncc(Cl)cn1)[C@@]2(O[C@H]1C[C@@H](O)C1)c1ccc(Cl)cc1)C1CCN(C)CC1 [Example 560, (3R)-3-(4-chlorophenyl)-2-[(5-chloropyrimidin-2-yl)methyl]-4-fluoro-6-[(1S)-1-hydroxy-1-(1-methylpiperidin-4-yl)propyl]-3-[cis-3-hydroxycyclobutoxy]-2,3-dihydro-1H-isoindol-1-one]	30	3	–
Cc1c[nH]c(C(C)(O)c2cc(F)c3c(c2)C(=O)N(Cc2ccc(Cl)cn2)[C@@]3(OCC2(O)CC2)c2ccc(Cl)cc2)n1 (mixture of isomers) [Example 332, (3R)-3-(4-chlorophenyl)-2-[(5-chloropyridin-2-yl)methyl]-4-fluoro-6-[1-hydroxy-1-(4-methyl-1H-imidazol-2-yl)ethyl]-3-[(1-hydroxycyclopropyl)methoxy]-2,3-dihydro-1H-isoindol-1-one]	–	5	inhibition at 0.03 µM ([1]; read-out: MDM2 % inhibition @0.030): 60%
CCC(O)(c1cc(F)c2c(c1)C(=O)N(Cc1ncc(Cl)cn1)[C@@]2(O[C@H]1CCOC1)c1ccc(Cl)cc1)C1CCN(C)CC1 (single isomer, unassigned) [Example 449]	78	19	–
CCCC(O)(c1cc(F)c2c(c1)C(=O)N(Cc1ccc(C#N)cn1)[C@@]2(O[C@H]1CCOC1)c1ccc(Cl)cc1)c1cn(C)cn1 (single isomer, unassigned) [Example 472]	–	10	inhibition at 0.003 µM [1]: 48%
CN1CCC(C(C)(O)c2cc(F)c3c(c2)C(=O)N(Cc2ncc(Cl)cn2)[C@@]3(OCC2(F)COC2)c2ccc(Cl)cc2)CC1 (single isomer, unassigned) [Example 558]	–	6	inhibition at 0.003 µM [1]: 53%
CCC(O)(c1cc(F)c2c(c1)C(=O)N(Cc1ncc(C#N)cn1)[C@@]2(OC)c1ccc(Cl)cc1)[C@H]1CC[C@H](O)CC1 (stereo partly drawn) [Example 504, 2-{[(1R)-1-(4-chlorophenyl)-7-fluoro-5-{1-hydroxy-1-[trans-4-hydroxycyclohexyl]propyl}-1-methoxy-3-oxo-2,3-dihydro-1H-isoindol-2-yl]methyl}pyrimidine-5-carbonitrile]	71	0	–
CCC(O)(c1cc(F)c2c(c1)C(=O)N(Cc1ncc(Cl)cn1)[C@@]2(OC)c1ccc(Cl)cc1)[C@H]1CC[C@H](O)CC1 (stereo partly drawn) [Example 511, (3R)-3-(4-chlorophenyl)-2-[(5-chloropyrimidin-2-yl)methyl]-4-fluoro-6-{1-hydroxy-1-[trans-4-hydroxycyclohexyl]propyl}-3-methoxy-2,3-dihydro-1H-isoindol-1-one]	72	10	–
CCC(O)(c1cc(F)c2c(c1)C(=O)N(Cc1ncc(C#N)cn1)[C@@]2(OC[C@H]1C[C@H](O)C1)c1ccc(Cl)cc1)c1cn(C)cn1 (single isomer, unassigned) [Example 483]	58	–	IC50 [3, 4]: 0.2 µM
CCC(O)(c1cc(F)c2c(c1)C(=O)N(Cc1ccc(C#N)cn1)[C@@]2(O[C@H]1CCOC1)c1ccc(Cl)cc1)c1cnn(C)c1 (single isomer, unassigned) [Example 359]	–	–	MDM2 % at stated concentration ([1]; at 0.10 μM): 50%@0.10; IC50 [3, 5]: 3.9 µM
CCC(O)(c1cc(F)c2c(c1)C(=O)N(Cc1ccc(C#N)cn1)[C@@]2(OCCO)c1ccc(Cl)cc1)C1(F)CCOCC1 (stereo partly drawn) [Example 500, 6-{[(1R)-1-(4-chlorophenyl)-7-fluoro-5-[1-(4-fluorooxan-4-yl)-1-hydroxypropyl]-1-(2-hydroxyethoxy)-3-oxo-2,3-dihydro-1H-isoindol-2-yl]methyl}pyridine-3-carbonitrile]	–	–	inhibition at 0.1 µM [1]: 21%; inhibition at 10 µM [3]: 16%
Cn1cc(C(C)(O)c2cc(F)c3c(c2)C(=O)N(Cc2ncc(F)cc2F)[C@@]3(OCC2(O)CC2)c2ccc(Cl)cc2)cn1 (single isomer, unassigned) [Example 350]	–	–	MDM2 % at stated concentration ([1]; at 0.030 μM): 54%@0.030; IC50 [3, 5]: 0.51 µM
CCC(O)(c1cc(F)c2c(c1)C(=O)N(Cc1ncc(Cl)cn1)[C@@]2(OCC1(CO)CC1)c1ccc(Cl)cc1)c1cn(C)cn1 (single isomer, unassigned) [Example 477]	86	–	IC50 [3, 4]: 0.0091 µM
CCC(O)(c1cc(F)c2c(c1)C(=O)N(Cc1ccc(C#N)cn1)[C@@]2(OC[C@@H](C)O)c1ccc(Cl)cc1)C1(F)CCOCC1 (stereo partly drawn) [Example 498, 6-{[(1R)-1-(4-chlorophenyl)-7-fluoro-5-[1-(4-fluorooxan-4-yl)-1-hydroxypropyl]-1-[(2R)-2-hydroxypropoxy]-3-oxo-2,3-dihydro-1H-isoindol-2-yl]methyl}pyridine-3-carbonitrile]	–	–	inhibition at 0.1 µM [1]: 32%; inhibition at 10 µM [3]: 96%

Further lines, with some results ahead:

inhibition at 0.001 µM [1] [%]	Structure (SMILES)	inhibition at 10 µM [2] [%]	further results
45	CCC(O)(c1cc(F)c2c(c1)C(=O)N(Cc1ncc(C#N)cn1)[C@@]2(OCC1(C#N)CC1)c1ccc(Cl)cc1)C1(F)CCN(C)CC1 (single isomer, unassigned) [Example 574]	27	–
77	CCC(O)(c1cc(F)c2c(c1)C(=O)N(Cc1ccc(C#N)cn1)[C@@]2(OC)c1ccc(Cl)cc1)[C@H]1CC[C@H](O)CC1 (single isomer, unassigned) [Example 521]	11	–
86	CCC(O)(c1cc(F)c2c(c1)C(=O)N(Cc1ncc(Cl)cn1)[C@@]2(OCC1(C#N)CC1)c1ccc(Cl)cc1)C1(F)CCN(C)CC1 (single isomer, unassigned) [Example 564]	–	inhibition at 3 µM [2]: 10%
94	CCC(O)(c1cc(F)c2c(c1)C(=O)N(Cc1ncc(Cl)cn1)[C@@]2(OCC1(C#N)CC1)c1ccc(Cl)cc1)C1(F)CCNCC1 (single isomer, unassigned) [Example 545]	–	inhibition at 3 µM [2]: 4%
86	CCC(O)(c1cc(F)c2c(c1)C(=O)N(Cc1ccc(C#N)cn1)[C@@]2(O[C@H]1CCOC1)c1ccc(Cl)cc1)C1(F)CCNCC1 (single isomer, unassigned) [Example 546]	17	–
91	CC[C@@](O)(c1cc(F)c2c(c1)C(=O)N(Cc1ncc(Cl)cn1)[C@@]2(OCC1(CO)CC1)c1ccc(Cl)cc1)C1CCN(C)CC1 [Example 556, (3R)-3-(4-chlorophenyl)-2-[(5-chloropyrimidin-2-yl)methyl]-4-fluoro-6-[(1S)-1-hydroxy-1-(1-methylpiperidin-4-yl)propyl]-3-{[1-(hydroxymethyl)cyclopropyl]methoxy}-2,3-dihydro-1H-isoindol-1-one]	14	–
70	CC[C@@](O)(c1cc(F)c2c(c1)C(=O)N(Cc1ncc(Cl)cn1)[C@@]2(OC)c1ccc(Cl)cc1)C1CCN(C2COC2)CC1 [Example 551, (3R)-3-(4-chlorophenyl)-2-[(5-chloropyrimidin-2-yl)methyl]-4-fluoro-6-[(1S)-1-hydroxy-1-[1-(oxetan-3-yl)piperidin-4-yl]propyl]-3-methoxy-2,3-dihydro-1H-isoindol-1-one]	13	–
